Values quoted from earlier work as cited in patent US6586615B1, “α-aminoboronic acids prepared by novel synthetic methods” (Bristol-Myers Squibb Company, priority 2001, dated 2003).
pKi: −log10 of the molar value.

Molecular target: chymotrypsin (Bos taurus, UniProt P00766)
Details: inhibits chymotrypsin; background, Matteson J. Am. Chem. Soc. 103, 5241-5242 (1981)

pKi: 5.68
SMILES: CC(=O)NC(Cc1ccccc1)B(O)O (stereo not shown) [Ac-boroPhe-OH]
